Experimental data taken from PubChem BioAssay (NCI).
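Compound exposure: 48 hours, 5 concentrations, 96-well plates. TGI denotes the concentration required for complete inhibition of growth.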

Experiments:
Assay in all cases: NCI tumour cell line growth inhibition, 48 h
UO-31 renal = test system: UO-31 renal
CCRF-CEM leukemia = test system: CCRF-CEM leukemia
CAKI-1 renal = test system: CAKI-1 renal
UACC-62 melanoma = test system: UACC-62 melanoma
A498 renal = test system: A498 renal
HCT-15 colon = test system: HCT-15 colon
SF-539 CNS = test system: SF-539 CNS
A549 NSCLC = test system: A549 NSCLC
SN12C renal = test system: SN12C renal
SNB-75 CNS = test system: SNB-75 CNS
LOX IMVI melanoma = test system: LOX IMVI melanoma
HT29 colon = test system: HT29 colon
T-47D breast = test system: T-47D breast
NCI-H226 lung = test system: NCI-H226 lung
ACHN renal = test system: ACHN renal
HOP-92 NSCLC = test system: HOP-92 NSCLC
PC-3 prostate = test system: PC-3 prostate
BT-549 breast = test system: BT-549 breast
HS 578T breast = test system: HS 578T breast
MDA-N = test system: MDA-N

Structure (SMILES)	TGI (UO-31 renal) [µM]	TGI (CCRF-CEM leukemia) [µM]	TGI (CAKI-1 renal) [µM]	TGI (UACC-62 melanoma) [µM]	TGI (A498 renal) [µM]	TGI (HCT-15 colon) [µM]	TGI (SF-539 CNS) [µM]	TGI (A549 NSCLC) [µM]	TGI (SN12C renal) [µM]	TGI (SNB-75 CNS) [µM]	TGI (LOX IMVI melanoma) [µM]	TGI (HT29 colon) [µM]	TGI (T-47D breast) [µM]	TGI (NCI-H226 lung) [µM]	TGI (ACHN renal) [µM]	TGI (HOP-92 NSCLC) [µM]	TGI (PC-3 prostate) [µM]	TGI (BT-549 breast) [µM]	TGI (HS 578T breast) [µM]	TGI (MDA-N) [µM]
Cc1nn(C(=O)CC(=O)Nc2ccc(Cl)cc2)c(C)c1N=Nc1ccccc1C(=O)O	> 100	> 100	> 100	> 100	> 100	> 100	> 100	> 100	> 100	> 100	> 100	> 100	–	–	–	–	–	–	–	–
CC(C)[Si]1(C(C)C)OCC2OC3(CO)C(Oc4nc(=O)ccn43)C2O[Si](C(C)C)(C(C)C)O1 (stereo unspecified)	27.2	24.6	29.4	26.8	–	28.5	28.3	–	–	30.7	28.7	27.2	24	31	29.3	32.2	17.7	24.9	45.9	–
CN(C)CCNC(=O)c1cccc2c(Nc3ccc(S(=O)(=O)N=C(N)N)cc3)c3ccccc3nc12	48.6	30.2	–	22.8	–	> 100	36.7	48.4	59.5	43.8	20.8	> 100	–	10.1	61.1	–	–	–	–	–
CC1(C)CC(=O)CC(=Nc2ccc([N+](=O)[O-])cc2)C1	> 100	60.8	–	> 100	> 100	> 100	–	> 100	> 100	> 100	38.8	> 100	–	> 100	> 100	–	–	–	–	–
O=C(CC(C(=O)c1ccsc1)c1ccccc1)c1ccccc1 (stereo unspecified)	> 100	> 100	> 100	> 100	> 100	> 100	> 100	80	> 100	> 100	> 100	> 100	> 100	> 100	> 100	> 100	–	–	> 100	> 100
CC(Oc1ccc(OCC2CCCCC2)cc1)C(=O)OCC(=O)c1ccc(-c2ccccc2)cc1 (stereo unspecified)	> 100	> 100	–	> 100	> 100	> 100	> 100	> 100	> 100	> 100	> 100	> 100	–	> 100	> 100	–	–	–	–	–
COc1ccc(/C=C(\C(C)=O)C(=O)Nc2ccccc2)cc1	> 100	> 100	> 100	> 100	–	> 100	> 100	> 100	> 100	–	> 100	> 100	–	> 100	> 100	> 100	–	–	–	–
CC(C)=CC1CC(=[N+]=[N-])C(=O)C1(C)C (stereo unspecified)	> 100	> 83.7	> 100	> 100	> 100	> 100	> 100	> 100	> 100	> 86.5	> 100	> 31.6	–	> 100	> 100	> 100	–	–	–	–
C=CN1C(=O)[C@H](Oc2ccccc2)[C@@H]1c1ccccc1	> 100	> 100	–	–	> 100	> 100	31.1	85	> 100	61.8	–	69.4	–	> 100	> 100	–	–	–	–	–
COc1ccc(OC)c(/C=C(/C#N)c2ccccc2)c1	–	62.1	> 100	35.8	83.8	> 100	> 100	> 100	> 100	32.8	> 100	> 100	–	> 100	> 100	70.2	–	–	–	–
COC(=O)[C@@]1(C)/C(=N/NS(=O)(=O)c2ccc(C)cc2)CCC[C@@H]1C	> 100	> 100	> 100	> 100	> 100	31.9	> 100	> 100	> 100	> 100	27.5	> 100	–	> 100	> 100	> 100	–	–	–	–
CC(=O)NC1=N/C(=C\c2ccc(Cl)cc2)C(=O)N1/C=C1\C(=O)Oc2ccccc2C1=O	–	> 100	> 100	> 100	57.8	> 100	> 100	> 100	> 100	> 100	> 100	> 100	> 100	> 100	> 100	–	> 100	–	6.22	> 100
COC1(OC)CCCc2c1no[n+]2[O-]	> 100	> 100	> 100	> 100	> 100	> 100	> 100	> 100	> 100	> 100	> 100	> 100	–	> 100	> 100	–	> 100	–	> 100	> 100
CS(=O)(=O)c1ccc(-c2cc(-c3ccc(S(C)(=O)=O)cc3)[n+](-c3cc(-c4ccccc4)c([O-])c(-c4ccccc4)c3)c(-c3ccc(S(C)(=O)=O)cc3)c2)cc1	> 100	–	> 100	> 100	> 100	> 100	> 100	> 100	> 100	–	> 100	> 100	–	> 100	> 100	–	–	–	–	–
O=C(CSc1c2ccccc2nc2ccccc12)Nc1ccccc1-c1ccccc1NC(=O)CSc1c2ccccc2nc2ccccc12	> 100	> 78.7	> 73.8	52.7	> 93.4	66.6	> 64.7	> 100	> 83.5	> 100	39.1	> 100	–	> 80.5	> 100	96.1	–	–	–	–
COc1ccc(C(C#N)NNC(=O)Cc2ccccc2)cc1OC (stereo unspecified)	> 100	> 100	> 100	> 100	–	> 100	> 100	> 100	> 100	> 100	> 100	> 100	–	> 100	> 100	> 100	–	–	–	–
